Data taken from PubChem BioAssay (NCI).
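Step 1: Grow cells in 96-well plates. Step 2: Expose to compound for 48 hours at 5 concentrations. Step 3: Interpolate endpoints linearly; if unreached, use highest concentration. The concentration for 50% growth inhibition is given as GI50. TGI denotes the concentration required for complete inhibition of growth.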

Key:
Assay in all cases: NCI anticancer screen, dose series, 48 h
[1] = test system: A498 renal
[2] = test system: A549 NSCLC
[3] = test system: HCT-116 colon
[4] = test system: HOP-92 NSCLC
[5] = test system: IGROV1 ovarian
[6] = test system: MDA-MB-231 breast
[7] = test system: SF-539 CNS
[8] = test system: SK-MEL-2 melanoma
[9] = test system: SK-MEL-28 melanoma
[10] = test system: SNB-75 CNS

With `COc1cc2c(cc1OC)C(=O)C(Br)CC2` (stereo not given) the GI50 [1] was 11.3 µM, the TGI [1] was 23.6 µM and the GI50 [2] was 11.4 µM. It also gave a TGI [2] of 27.7 µM, a GI50 [3] of 1.74 µM and a TGI [3] of 3.72 µM. The GI50 [4] was 2.63 µM, the TGI [4] was 12.2 µM and the GI50 [5] was 6.23 µM. For the same molecule, the TGI [5] was 19.7 µM, the GI50 [6] was 3.56 µM and the TGI [6] was 13.4 µM. The GI50 [7] was 3.12 µM, the TGI [7] was 11.2 µM and the GI50 [8] was 3.6 µM. It also gave a TGI [8] of 9.98 µM, a GI50 [9] of 4.85 µM and a TGI [9] of 16.3 µM. For the same molecule, the GI50 [10] was 5.27 µM and the TGI [10] was 18.9 µM.

With `O=C1C=C[C@]2(C[C@@H](c3cccc(C(F)(F)F)c3)O[C@@H](c3cccc(C(F)(F)F)c3)O2)O1` the GI50 [1] was 1.81 µM, the TGI [1] was 9.21 µM and the GI50 [2] was 5.57 µM. The TGI [2] was 20.4 µM, the GI50 [3] was 1.08 µM and the TGI [3] was 2.64 µM. The GI50 [4] was 1.97 µM, the TGI [4] was 6.6 µM and the GI50 [5] was 1.66 µM. It also gave a TGI [5] of 4.41 µM, a GI50 [6] of 2.15 µM and a TGI [6] of 6.29 µM. It also gave a GI50 [7] of 1.43 µM, a TGI [7] of 3.31 µM and a GI50 [8] of 2.21 µM. The TGI [8] was 6.54 µM, the GI50 [9] was 2.34 µM and the TGI [9] was 6.44 µM. It also gave a GI50 [10] of 2.79 µM and a TGI [10] of 16.1 µM.

With `O=S(=O)(c1ccc(NC(=S)N/N=C/c2ccccc2O)cc1)N1CCCCC1` the TGI [1] was 27.9 µM, the TGI [2] was greater than 31.7 µM and the TGI [3] was 7 µM. For the same molecule, the TGI [4] was 66.1 µM, the TGI [5] was greater than 50.4 µM and the TGI [6] was greater than 44.5 µM. For the same molecule, the TGI [7] was greater than 40.9 µM, the TGI [8] was greater than 100 µM and the TGI [9] was greater than 52 µM. The TGI [10] was greater than 65.2 µM.

`O=C(c1cccs1)c1c(C(F)(F)F)n([O-])c2ccc(C(F)(F)F)cc2[n+]1=O` was tested, and the GI50 [1] was 1.65 µM, the TGI [1] was 3.04 µM and the GI50 [2] was 0.134 µM. It also gave a TGI [2] of 0.31 µM, a GI50 [3] of 0.17 µM and a TGI [3] of 0.314 µM. For the same molecule, the GI50 [4] was 0.152 µM, the TGI [4] was 0.321 µM and the GI50 [5] was 0.132 µM. It also gave a TGI [5] of 0.278 µM, a GI50 [6] of 0.189 µM and a TGI [6] of 0.357 µM. The GI50 [7] was 0.183 µM, the TGI [7] was 0.36 µM and the GI50 [8] was 0.785 µM. It also gave a TGI [8] of 1.85 µM, a GI50 [9] of 0.451 µM and a TGI [9] of 0.908 µM. It also gave a GI50 [10] of 0.502 µM and a TGI [10] of 1.21 µM.

`O=c1c(Cl)nnc2sc3ccccc3n12` was tested, and the GI50 [1] was greater than 100 µM, the TGI [1] was greater than 100 µM and the GI50 [2] was 39.7 µM. For the same molecule, the TGI [2] was greater than 100 µM, the GI50 [3] was 20.4 µM and the TGI [3] was 68.3 µM. The GI50 [4] was 20.6 µM, the TGI [4] was greater than 100 µM and the GI50 [5] was 31.9 µM. The TGI [5] was greater than 100 µM, the GI50 [6] was 14.2 µM and the TGI [6] was greater than 100 µM. For the same molecule, the GI50 [7] was 37.5 µM, the TGI [7] was greater than 100 µM and the GI50 [8] was greater than 100 µM. The TGI [8] was greater than 100 µM, the GI50 [9] was 59 µM and the TGI [9] was greater than 100 µM. The GI50 [10] was greater than 100 µM and the TGI [10] was greater than 100 µM.

In the case of `Cn1cc(-c2ccc(=O)n(Cc3cccc(-c4ncc(OCCN5CCOCC5)cn4)c3)n2)cn1`, the GI50 [1] was 60.1 µM, the TGI [1] was greater than 100 µM and the GI50 [2] was 71.7 µM. The TGI [2] was greater than 100 µM, the GI50 [3] was 56.5 µM and the TGI [3] was greater than 100 µM. It also gave a GI50 [4] of 34.9 µM, a TGI [4] greater than 100 µM and a GI50 [5] greater than 76.6 µM. It also gave a TGI [5] greater than 100 µM, a GI50 [6] greater than 78 µM and a TGI [6] greater than 100 µM. For the same molecule, the GI50 [7] was greater than 100 µM, the TGI [7] was greater than 100 µM and the GI50 [8] was greater than 88.3 µM. It also gave a TGI [8] greater than 100 µM, a GI50 [9] greater than 89.5 µM and a TGI [9] greater than 100 µM. It also gave a GI50 [10] greater than 42.5 µM and a TGI [10] greater than 100 µM.

For `O=C1c2ccccc2-c2c1c1ccccc1c(=O)n2CCO`, the TGI [1] was greater than 100 µM, the TGI [2] was greater than 100 µM and the TGI [3] was greater than 79.3 µM. It also gave a TGI [4] greater than 71.6 µM, a TGI [5] greater than 100 µM and a TGI [6] greater than 100 µM. For the same molecule, the TGI [7] was greater than 94.1 µM, the TGI [8] was 87.2 µM and the TGI [9] was greater than 100 µM. It also gave a TGI [10] greater than 81 µM.

For `O=[N+]([O-])c1ccc(N/N=C\c2cc(Cl)ccc2O)nc1`, the GI50 [1] was 17 µM, the TGI [1] was greater than 100 µM and the GI50 [2] was 2.79 µM. The TGI [2] was 16.1 µM, the GI50 [3] was 1.2 µM and the TGI [3] was 12.5 µM. For the same molecule, the GI50 [4] was 6.68 µM, the TGI [4] was greater than 100 µM and the GI50 [5] was 1.2 µM. The TGI [5] was 4.69 µM, the GI50 [6] was 3.88 µM and the TGI [6] was 33.1 µM. The GI50 [7] was 3.02 µM, the TGI [7] was greater than 100 µM and the GI50 [8] was 3.24 µM. For the same molecule, the TGI [8] was 29.4 µM, the GI50 [9] was 3.65 µM and the TGI [9] was greater than 100 µM. The GI50 [10] was 1.55 µM and the TGI [10] was 21.3 µM.

In the case of `C[C@H]1[C@H](OC(=O)CCC(=O)O)O[C@@H]2O[C@]3(C)CC[C@H]4[C@H](C)CC[C@@H]1[C@@]24OO3`, the GI50 [1] was 5.93 µM, the TGI [1] was 33.8 µM and the GI50 [2] was 0.959 µM. The TGI [2] was 18.3 µM, the GI50 [3] was 0.129 µM and the TGI [3] was 11.4 µM. For the same molecule, the GI50 [4] was 0.214 µM, the TGI [4] was 2.38 µM and the GI50 [5] was 1.17 µM. It also gave a TGI [5] of 5.91 µM, a GI50 [6] of 2.34 µM and a TGI [6] of 35.4 µM. For the same molecule, the GI50 [7] was 0.667 µM, the TGI [7] was 14.5 µM and the GI50 [8] was 2.86 µM. It also gave a TGI [8] of 59.8 µM, a GI50 [9] of 4.27 µM and a TGI [9] greater than 100 µM. The GI50 [10] was 2.34 µM and the TGI [10] was 17.6 µM.

Molecule `O/N=C1\CCc2cc(-c3nc(C4CCNCC4)[nH]c3-c3ccncc3)ccc21` has a GI50 [1] greater than 25 µM, a TGI [1] greater than 25 µM and a GI50 [2] greater than 25 µM. The TGI [2] was greater than 25 µM, the GI50 [3] was greater than 25 µM and the TGI [3] was greater than 25 µM. The GI50 [4] was greater than 25 µM, the TGI [4] was greater than 25 µM and the GI50 [5] was greater than 25 µM. For the same molecule, the TGI [5] was greater than 25 µM, the GI50 [6] was greater than 25 µM and the TGI [6] was greater than 25 µM. For the same molecule, the GI50 [7] was greater than 25 µM, the TGI [7] was greater than 25 µM and the GI50 [8] was 16 µM. For the same molecule, the TGI [8] was greater than 25 µM, the GI50 [9] was 1.5 µM and the TGI [9] was greater than 21.3 µM. For the same molecule, the GI50 [10] was greater than 15.8 µM and the TGI [10] was greater than 25 µM.

With `COc1cccc(NC(=O)c2sc3nc4c(cc3c2N)CCCC4)c1` the GI50 [1] was 0.349 µM, the TGI [1] was 14.2 µM and the GI50 [2] was 0.58 µM. For the same molecule, the TGI [2] was greater than 100 µM, the GI50 [3] was 0.475 µM and the TGI [3] was greater than 100 µM. It also gave a GI50 [4] of 0.598 µM, a TGI [4] of 24.7 µM and a GI50 [5] of 4.1 µM. For the same molecule, the TGI [5] was greater than 100 µM, the GI50 [6] was 3.88 µM and the TGI [6] was 26.4 µM. It also gave a GI50 [7] of 0.368 µM, a TGI [7] of 12.8 µM and a GI50 [8] of 0.69 µM. For the same molecule, the TGI [8] was 18.6 µM, the GI50 [9] was 0.905 µM and the TGI [9] was greater than 100 µM. For the same molecule, the GI50 [10] was 0.271 µM and the TGI [10] was 2.77 µM.

`CC1(C)CC(=O)C2=C(C1)NC(SSC1=C(C#N)C(c3ccccc3)C3=C(CC(C)(C)CC3=O)N1)=C(C#N)C2c1ccccc1` (stereo not given) showed a GI50 [1] of 30.4 µg/mL, a TGI [1] of 59.8 µg/mL and a GI50 [2] of 50.5 µg/mL. For the same molecule, the TGI [2] was greater than 150 µg/mL, the GI50 [3] was 26.3 µg/mL and the TGI [3] was 47 µg/mL. It also gave a GI50 [4] of 29 µg/mL, a TGI [4] of 51 µg/mL and a GI50 [5] of 28.3 µg/mL. For the same molecule, the TGI [5] was 50.1 µg/mL, the GI50 [6] was 23.4 µg/mL and the TGI [6] was 45.1 µg/mL. For the same molecule, the GI50 [7] was 26.9 µg/mL, the TGI [7] was 51 µg/mL and the GI50 [8] was 26.5 µg/mL. The TGI [8] was 49.8 µg/mL, the GI50 [9] was 27.7 µg/mL and the TGI [9] was 48.6 µg/mL. For the same molecule, the GI50 [10] was 29 µg/mL and the TGI [10] was 53.3 µg/mL.
